Values quoted from earlier work in patent US7824714B2, “Chinese herb extract for treating dementia and preparation method thereof” (Development Center for Biotechnology, priority 2008, dated 2010).

Assays:
brain cells = conditions: animal experiments
[1] = tested on: mice having scopolamine dementia and Aβ dementia

## OC[C@H]1O[C@@H](Oc2c(O)cc(O)cc2C=Cc2ccc(O)cc2)[C@H](O)[C@@H](O)[C@@H]1O [stilbene glucoside compound, 3,4′,5-trihydroxy-2-stilbenyl beta-D-glucoside]
Brain cells
  damage of brain cells caused by β-amyloid protein and hydrogen peroxide: capable of preventing
[1]
  memory capacity: increasing
